In brackets after ≈: the same amount, converted by molar mass. Like-named read-outs stand apart in the source and are kept apart here.
Legend:
[1] = test system: M. smegmatis overexpressing the rv0194 gene of M. tuberculosis (SMR5/pML655); test: microbe, parasite or virus in culture; format: cell-based; details: for MIC: Mycolicibacterium smegmatis
[2] = test system: M. bovis BCG ML1034 mutant (bcg0231/rv0194 overexpressed); format: cell-based
[3] = test system: M. bovis BCG transposon mutants; format: cell-based
[4] = test system: M. tuberculosis mctB mutant ML256 (Δrv1698); format: cell-based
[5] = test system: Mtb mctB mutant ML256; design: species or system mice; details: mouse, in vivo
[6] = read-out: MIC rv0194 overexpression

## CC1(C)S[C@@H]2[C@H](NC(=O)[C@H](N)c3ccccc3)C(=O)N2[C@H]1C(=O)O [Ampicillin]
[1]
  Resistance Factor: 2
[1]; [6]
  MIC: 0.25 mg/mL (≈ 715 µM)
[2]
  MIC of amp.: 2000 mg/mL
  Resistance Factor: 32
[3]
  MIC of ampicillin, completely resistant mutants: ≥ 2,000 μg/ml
  MIC of ampicillin, mutants excluded from further analysis: lower than 250 μg/ml
  MICs of ampicillin for all transposon mutants: higher than 62.5 μg/ml

## CO[C@@H]1[C@@H](OC(N)=O)[C@@H](O)[C@H](Oc2ccc3c(O)c(NC(=O)c4ccc(O)c(CC=C(C)C)c4)c(=O)oc3c2C)OC1(C)C [Novobiocin]
[1]
  Resistance Factor: 2
[1]; [6]
  MIC: 0.008 mg/mL (≈ 13.1 µM)

## CC[n+]1c(-c2ccccc2)c2cc(N)ccc2c2ccc(N)cc21 [ethidium bromide]
[1]; read-out: MIC of ethidium bromide
  MIC: 0.0025 mg/mL

## Cc1cc(-c2ccc(S(=O)(=O)O)cc2)c2ccc3c(-c4ccc(S(=O)(=O)O)cc4)cc(C)nc3c2n1 [Bathocuproine disulfonate]
[4]
  protection from the toxic effects of CuSO4: protects Mtb from the toxic effects of CuSO4

## CN(C)[C@@H]1C(=O)C(C(N)=O)=C(O)[C@@]2(O)C(=O)C3=C(O)c4c(O)cccc4[C@@](C)(O)[C@H]3C[C@@H]12 [Tetracyclin]
[1]
  MIC rv0194 overexpression: 0.0003 mg/mL (≈ 0.675 µM)
  Resistance Factor: 1
[2]
  MIC ML1034: >0.016 mg/mL

## CN[C@H](CC(C)C)C(=O)N[C@H]1C(=O)N[C@@H](CC(N)=O)C(=O)N[C@H]2C(=O)N[C@H]3C(=O)N[C@H](C(=O)N[C@H](C(=O)O)c4cc(O)cc(O)c4-c4cc3ccc4O)[C@H](O)c3ccc(c(Cl)c3)Oc3cc2cc(c3O[C@@H]2O[C@H](CO)[C@@H](O)[C@H](O)[C@H]2O[C@H]2C[C@](C)(N)[C@H](O)[C@H](C)O2)Oc2ccc(cc2Cl)[C@H]1O [Vancomycin]
[1]
  Resistance Factor: 2
[1]; [6]
  MIC: 0.0025 mg/mL (≈ 1.73 µM)
[2]
  MIC ML1034: 0.02 mg/mL (≈ 13.8 µM)

## [H]/N=C(/N)N[C@H]1[C@H](O)[C@@H](O)[C@H](O[C@@H]2O[C@@H](C)[C@](O)(C=O)[C@H]2O[C@@H]2O[C@@H](CO)[C@H](O)[C@@H](O)[C@@H]2NC)[C@@H](N/C(N)=N\[H])[C@@H]1O [Streptomycin]
[2]
  MIC ML1034: 0.016 mg/mL (≈ 27.5 µM)
  Resistance Factor: 32

## O=S(=O)([O-])[O-].[Cu+2] [CuSO4]
[4]
  growth rate on plates with CuSO4: severely reduced the growth rate
[5]
  effect of dietary CuSO4 on persistence of the mctB mutant in lungs: aggravated the persistence defect

## CC[C@H]1OC(=O)[C@H](C)[C@@H](O[C@H]2C[C@@](C)(OC)[C@@H](O)[C@H](C)O2)[C@H](C)[C@@H](O[C@@H]2O[C@H](C)C[C@H](N(C)C)[C@H]2O)[C@](C)(O)C[C@@H](C)C(=O)[C@H](C)[C@@H](O)[C@]1(C)O [Erythromycin]
[1]
  Resistance Factor: 4
[1]; [6]
  MIC: 0.01 mg/mL (≈ 13.6 µM)

## O=C(N[C@H](CO)[C@H](O)c1ccc([N+](=O)[O-])cc1)C(Cl)Cl [Chloramphenicol]
[1]
  Resistance Factor: 1
[1]; [6]
  MIC: 0.032 mg/mL (≈ 99 µM)
[2]
  MIC ML1034: 0.512 mg/mL (≈ 1580 µM)
  Resistance Factor: 64
